Legend:
Type in all cases: cell-based, Candida albicans
C. albicans ATCC 10231 [1] = assay: Adhesion of C. albicans to glass surface; details: 640 µM
Description: The effect of gemini QAS on the adhesion of C. albicans ATCC 10231 was determined using a modification of the method of Obłąk et al.. […] After incubation, the culture was centrifuged (1000 rcf, 5 min), and the resulting pellet was suspended in PBS (pH 7.4) until OD = 0.8 (λ = 590 nm). • In the case of testing the polystyrene surface, 100 µl of tested gemini QAS at concentrations of 20–1280 µM was added to the wells of a 96-well titration plate, incubated for 2 h at 37 °C, rinsed with sterile distilled water, and then spotted with 100 µl of the obtained culture and incubated at 37 °C for 4 h. After this time, the culture was removed, the plates were rinsed with sterile distilled water and placed in an oven (60 °C, 20 min). Then, crystal violet (0.1%) was added to the wells of the titration plate, stained for 5 min and rinsed with sterile distilled water until all traces of violet were removed from the rinsed water. Then the washing mixture (1% SDS, 50 mmol HCl, 100% isopropanol) was added. The absorbance of the samples was read using a spectrophotometer (BioTek 800 TS Absorbance Reader) at λ = 590 nm. […] Next, the washing mixture (1% SDS, 50 mmol HCl, 100% isopropanol) was added and the absorbance of the samples was read using a spectrophotometer (BioTek 800 TS Absorbance Reader) at λ = 590 nm. […] After this time, the colonies growing on the plates were counted. […]

C. albicans ATCC 10231 [2] = assay: Adhesion of C. albicans to stainless steel surface; details: concentration not stated (tested 80–640 µM)
Description: (§1) The effect of gemini QAS on the adhesion of C. albicans ATCC 10231 was determined using a modification of the method of Obłąk et al.. […] After incubation, the culture was centrifuged (1000 rcf, 5 min), and the resulting pellet was suspended in PBS (pH 7.4) until OD = 0.8 (λ = 590 nm). • In the case of testing the polystyrene surface, 100 µl of tested gemini QAS at concentrations of 20–1280 µM was added to the wells of a 96-well titration plate, incubated for 2 h at 37 °C, rinsed with sterile distilled water, and then spotted with 100 µl of the obtained culture and incubated at 37 °C for 4 h. After this time, the culture was removed, the plates were rinsed with sterile distilled water and placed in an oven (60 °C, 20 min). Then, crystal violet (0.1%) was added to the wells of the titration plate, stained for 5 min and rinsed with sterile distilled water until all traces of violet were removed from the rinsed water. Then the washing mixture (1% SDS, 50 mmol HCl, 100% isopropanol) was added. The absorbance of the samples was read using a spectrophotometer (BioTek 800 TS Absorbance Reader) at λ = 590 nm. The positive control was the culture wells to which the tested gemini QAS were not added, and the negative control was the medium. The experiment was performed in 3 repetitions. • When the tested surface was stainless steel (round washers Ø 0.4 cm), silicone (0.5 cm long fragments of Foley catheters) or glass (1 cm^2 coverslips), the tested materials were incubated for 2 h at 37 °C with shaking (100 rpm) in the presence of the tested gemini QAS at concentrations of 80–640 µM. Then, the materials were rinsed with sterile distilled water, transferred to tubes with culture and incubated for 4 h at 37 °C with shaking (100 rpm). After incubation, the materials were rinsed with sterile distilled water. […] Next, the washing mixture (1% SDS, 50 mmol HCl, 100% isopropanol) was added and the absorbance of the samples was read using a spectrophotometer (BioTek 800 TS Absorbance Reader) at λ = 590 nm. […] After this time, the colonies growing on the plates were counted. […]

C. albicans ATCC 10231 [3] = assay: Adhesion of C. albicans to silicone surface
Description: as §1

[4] = system: C. albicans ATCC 10231 biofilm; assay: Biofilm viability (LIVE/DEAD, confocal microscopy); details: glass surface, SYTO 9 / propidium iodide
Description: The viability of the biofilm formed by C. albicans ATCC 10231 cells was determined using the Filmtracer LIVE/DEAD Biofilm Viability Kit (Invitrogen).
The C. albicans culture was incubated in YPG medium at 37 °C for 18 h. After incubation, the culture was centrifuged (1000 rcf, 5 min), and the resulting pellet was suspended in PBS (pH 7.4) to obtain an OD = 1.5 (λ = 590 nm). 100 µl of C. albicans cell suspension was placed into the wells of the chamber slide plate and incubated for 24 h at 37 °C. After this time, the culture was removed and the plate was rinsed with sterile mQ water. Then, 200 µl of selected tested surfactants in appropriate concentrations was added to each well and incubated for 4 h. After incubation, the plate was rinsed with PBS, 100 µl of the LIVE/DEAD probe was added, and it was incubated for 30 min in the dark. After this time, the probe was removed and the wells were rinsed twice with PBS. Then, 100 µl of 4% formaldehyde in PBS (pH 7.0) was added and it was incubated for 30 min in the dark. Formaldehyde was removed and the wells were rinsed twice with PBS. After peeling off the walls of the plate, a drop of 50% glycerol in PBS was placed on each field and a glass slide was placed on it. The viability of the biofilm formed by C. albicans cells was imaged using a confocal microscope. The negative control was PBS.

[5] = concentration not stated (tested 80–640 µM)

Structure (SMILES) | Inhibition of adhesion of C. albicans to stainless steel (C. albicans ATCC 10231 [2]) | Reduction of adhesion of C. albicans cells to silicone (C. albicans ATCC 10231 [3]; [5]) | also measured
CCCCCCCCCCCC(=O)N(CCCN(CCC[N+](C)(C)C)C(=O)CCCCCCCCCCC)CCC[N+](C)(C)C [2xC12BrG3] | – | – | Reduction of adhesion of C. albicans cells to glass (C. albicans ATCC 10231 [1]): approximately 80%
CCCCCCCCCCCC(=O)N(CCCN(CCC[N+](C)(C)C)C(=O)CCCCCCCCCCC)CCC[N+](C)(C)C [2xC12MeCO3G3, dimethyl{{3-[N-(3-{N-[3-(dimethylammonium)propyl]dodecylamido}propyl}dodecylamido}propyl}}ammonium dimethylcarbonate] | approximately 60% | 80–90% | –
CCCCCCCCCCCCCCCC(=O)N(CCCN(CCC[N+](C)(C)C)C(=O)CCCCCCCCCCCCCCC)CCC[N+](C)(C)C [2xC16BrG3] | approximately 60% | – | Impact on survival of C. albicans biofilm (membrane integrity) [4]: strong impact
CCCCCCCCCCCCCCCC(=O)N(CCCN(CCC[N+](C)(C)C)C(=O)CCCCCCCCCCCCCCC)CCC[N+](C)(C)C [2xC16LaG3] | – | – | Reduction of adhesion of C. albicans cells to silicone (C. albicans ATCC 10231 [3]; 640 µM): completely reduced the adhesion
CCCCCCCCCCCCCCCC(=O)N(CCCN(CCC[N+](C)(C)C)C(=O)CCCCCCCCCCCCCCC)CCC[N+](C)(C)C [2xC16MeCO3G3, dimethyl{{3-[N-(3-{N-[3-(dimethylammonium)propyl]hexadecylamido}propyl}hexadecylamido}propyl}}ammonium dimethylcarbonate] | approximately 50% | 80–90% | –

Reference: PMC11187217, “Anti-adhesive, anti-biofilm and fungicidal action of newly synthesized gemini quaternary ammonium salts” (Scientific Reports, 2024)
